Where two headings read alike, the source gives them in different places. Values belong to the compound of their own block, whether it stands above or below them.
How the values were obtained:
HME-C20S RhoC cells = test: Matrigel invasion (cell motility) assay; type: cell-based, human; settings: FIG. 14A
Description: (§1) FIG. 14. Determination of cell invasiveness in the presence and absence of thiopurines and/or redox agents. […] Western blot analysis representing the total expression of RhoC in these cells also is shown. (B) Experimental procedures for the determination of the time-dependent motility of cells using the QCM Cell Invasion Assay kit in the presence and absence of 6-TG and DETA/NO are described elsewhere herein.
(§2) The top chamber of a Transwell filter (6.5 mm with 8 μm pores, Costar; Corning, N.Y.) was coated with a 10 μL aliquot of 10 mg/mL Matrigel, and the lower chamber of the Transwell was filled with either serum-free or serum-containing media. Sample cells were prepared to resuspend cells in a serum-free medium with 0.1% BSA at a concentration of 4×10^5 cells/mL. […] The Transwell filters were fixed with methanol, stained with haematoxylin and eosin, and cells in the serum-containing samples were counted. The number of cells that had invaded the serum-free, medium-containing lower chambers was used as a control background.

SUM149 cells = test: Matrigel invasion (cell motility) assay; type: cell-based, human; settings: FIG. 14A
Description: as §1, §2

Rho GTPases = test: Binding of 6-TGDP compared with GDP (Example 2); settings: Example 2, FIG. 13 values
Experimental: (§3) The true dissociation constant (^trueKD 6-TGDP) of Ras, RhoC, RhoA and Rac1 for 6-TGDP was then calculated to be ˜20.7 pM, 212 μM, 208 μM, and 158 μM [6-TGDP] by using a compensation equation, ^trueKD 6-TGDP=^appKD 6-TGDP/(1+[GDP]/^trueKD GDP) (95), in conjunction with the values given [(^appKD 6-TGDP of Ras, RhoC, RhoA, and Rac1=2300, 230, 224, and 245 μM (FIG. 13) and ^trueKD GDP=9 pM, 12 μM, 13 μM and 1.8 μM, respectively. The ^trueKD GDP of Ras, RhoA and Rac1 was determined previously (Lenzen et al. Biochemistry 37, 7420-7430 (1998); Heo et al. Biochemistry 44, 6573-6585 (2005)) and the ^trueKD GDP of RhoC was further determined. Example: ^trueKD 6-TGDP for Ras=2300 μM/(1+1 μM GDP/[…])=[…] [6-TGDP]].

Rac1 = Rac1 (Homo sapiens, UniProt P63000); test: Guanine nucleotide exchange of [3H]GDP-loaded GTPase with 6-TGDP (FIG. 13A); type: binding; parameters: made in house; host or cells: E. coli
Experimental: (§4) FIG. 13. Guanine nucleotide exchange of small GTPases with 6-TGDP. (A) To monitor 6-TGDP-mediated GTPase GDP dissociation, [^3H]GDP-loaded GTPase (1 μM) was incubated with 6-TGDP (0-2000 μM) for 1 h. (B) To monitor GTPase 6-TGDP dissociation by GDP (0-2000 μM) in the presence and absence of dithiothreitol (DTT), 6-TGDP-loaded GTPase (˜1 μM) was treated with .NO2 (˜3 μM) under anaerobic conditions and was incubated with various concentrations of [^3H]GDP (0-2000 μM) in the presence and absence of DTT (10 mM) for 1 h. For all assays, aliquots were withdrawn and spotted onto nitrocellulose filters. The filters were then washed three times with an assay buffer, and radioactivity was determined using a Beckman-Coulter scintillation counter. The resultant radioactivity (dpm) values associated with GTPase-bound [^3H]GDP were converted into the fraction of mol nucleotide per mol total GTPase. The data presented represent mean and standard error values from triplicate measurements. The apparent dissociation constants (appKD values) of GTPase 6-TGDP association ([^3H]GDP dissociation, A); and 6-TGDP dissociation ([3H]GDP association, B) were obtained by fitting the data to a simple dissociation and association, respectively. (A) The ^appKD values of Ras, RhoC, RhoA and Rac1 for 6-TGDP, are, respectively, 2300, 230, 224, and 245 μM [6-TGDP]. (B) The appKD values of RhoC with and without DTT are, respectively, 560, and 1000 μM [[^3H]GDP], whereas the ^appKD values of Ras with and without DTT are 530, and 520 μM [[^3H]GDP], respectively. The standard errors of each ^appKD value are less than 10% of their given values, and regression values associated with the fit were r^2>0.9560.
A kinetic assay method using radiolabeled GDP ([^3H]GDP) was established. The apparent dissociation constants (^appKD 6-TGDP) of Rho GTPases (including RhoA, Cdc42, and Rac1/2/3) and Ras with 6-TGDP were determined (FIG. 13). The results of this preliminary kinetic study provided strong support for the mechanism proposed for the role of 6-TGNP in RhoC inactivation (FIG. 7).
as §3

Ras = Ras (Homo sapiens, UniProt P01112); settings: determined previously (Lenzen et al.; Heo et al.); read-out: trueKD GDP; cited from earlier work
Chain of Ras (P01112 whole entry): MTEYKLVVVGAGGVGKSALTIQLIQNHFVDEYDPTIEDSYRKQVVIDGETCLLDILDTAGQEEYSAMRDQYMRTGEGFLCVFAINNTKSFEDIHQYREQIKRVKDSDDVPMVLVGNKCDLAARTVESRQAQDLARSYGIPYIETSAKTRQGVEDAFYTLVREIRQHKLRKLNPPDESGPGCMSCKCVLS

RhoC = RhoC (Homo sapiens, UniProt P08134); test: [3H]GDP displacement of 6-TGDP from .NO2-treated 6-TGDP-loaded GTPase with/without DTT (FIG. 13B); type: binding; parameters: made in house; host or cells: E. coli
Chain of RhoC (P08134 whole entry): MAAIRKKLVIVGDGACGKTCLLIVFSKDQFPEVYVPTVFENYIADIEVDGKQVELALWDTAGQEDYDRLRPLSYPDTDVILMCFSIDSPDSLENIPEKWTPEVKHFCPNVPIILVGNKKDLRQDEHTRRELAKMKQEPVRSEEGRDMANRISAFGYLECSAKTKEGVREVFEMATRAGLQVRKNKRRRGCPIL
Experimental: as §4
The ^appKD [3H]GDP was converted into ^trueKD [3H]GDP by using a compensation equation, ^trueKD [3H]GDP=^appKD [3H]GDP/(1+[6-TGDP]/^trueKD GDP) (Segel, I. H. (1993) Enzyme kinetics, A Wiley-Interscience publication, New York) (see above)). The calculated ^trueKD [3H]GDP values of RhoC in the presence and absence of DTT were estimated to be 516 μM and 923 μM, respectively. […] Treatment with DTT, a reducing agent, disrupts the disulfide bond between RhoC and 6-TGDP, liberating 6-TGDP from RhoC, and thereby permitting [^3H]GDP to bind to RhoC.

Compound: Nc1nc2nc[nH]c2c(=S)[nH]1 [6-TG, 6-thioguanine]
effect on motility compared with SUM149 and HME-RhoC cells (HME-C20S RhoC cells; 6-TG alone, three days): insignificant
effect on C20S RhoC activity and invasive cell motility (HME-C20S RhoC cells; 6-TG with a NO donor, compared with either alone): lack of a significant effect
cell motility (SUM149 cells; 6-TG 1 μM alone, three or more consecutive days): gradual but significant diminution of cell motility
invasive cell motility (SUM149 cells; 6-TG 1 μM with DETA/NO (or GSNO) 10 μM, three days): complete termination of the invasive cell motility

binding interaction with 6-TGDP weaker than with GDP (Rho GTPases): ~15 fold
Kd (Rac1; [3H]GDP-loaded GTPase 1 μM, 6-TGDP 0-2000 μM, 1 h, FIG. 13A, read-out: appKD for 6-TGDP): 245 µM
Kd (Rac1; calculated by compensation equation from appKD 6-TGDP and trueKD GDP, read-out: trueKD 6-TGDP): 158 µM
Compound: Nc1nc2c(ncn2[C@@H]2O[C@H](COP(=O)(O)OP(=O)(O)O)[C@@H](O)[C@H]2O)c(=S)[nH]1 [6-TGDP, 6-thioguanosine diphosphate]

Compound: Nc1nc2c(ncn2[C@@H]2O[C@H](COP(=O)(O)OP(=O)(O)O)[C@@H](O)[C@H]2O)c(=O)[nH]1 [GDP]
Kd (Ras): 9 pM
Kd (RhoC; absence of DTT, calculated by compensation equation, read-out: trueKD [3H]GDP): 923 µM
Kd (RhoC; presence of DTT, calculated by compensation equation, read-out: trueKD [3H]GDP): 516 µM
Kd (RhoC; with DTT 10 mM, 6-TGDP-loaded GTPase ~1 μM treated with .NO2 ~3 μM, anaerobic, 1 h, read-out: appKD for [3H]GDP (6-TGDP dissociation)): 560 µM
Kd (RhoC; without DTT, 6-TGDP-loaded GTPase ~1 μM treated with .NO2 ~3 μM, anaerobic, 1 h, read-out: appKD for [3H]GDP (6-TGDP dissociation)): 1000 µM

From US8729047B2, “Compositions for inhibiting redox-sensitive GTPases” (Board of Regents, The University of Texas System, priority 2010, dated 2014)
